# Data: patent US20240115572A1, “METHODS FOR TREATING GLIOBLASTOMAS WITH SEPIAPTERIN” (priority 2021, published 2024)
# Columns and labels:
# [1] = test system: Orthotopic glioblastoma tumors, nude (U87) mouse model; assay: Survival of nude mice with orthotopic U87 glioblastoma tumors, sepiapterin plus radiation; assay type: in vivo
# Description: Orthotopic glioblastoma tumors were established in nude (U87) and syngeneic (GL261) mouse models on Day 0 (N=13/group). Starting on Day 6 in the U87 mouse model, sepiapterin (SP) was orally administered for either 6 days (10 mg/kg sepiapterin) or daily (1 mg/kg sepiapterin) until end of experiment (60 days). Starting on Day 6 in the GL261 mouse model, SP was orally administered daily (10 mg/kg) until the end of experiment (60 days). Radiation (IR) (5 fxs of 2 Gy) with 3D treatment planning and delivery was started on Day 13, ending on Day 17.
# Orthotopic GL261 tumors = assay: Survival of mice with orthotopic GL261 tumors, temozolomide with or without sepiapterin; assay type: in vivo, mouse; settings: 10 mg/kg SP orally from day 7 until end of study + 60 mg/kg TMZ for 5 days
# Description: Orthotopic GL261 tumors were established on Day 0. Starting on Day 7 mice were treated with 60 mg/kg temozolomide (TMZ) for 5 days+/−10 mg/kg SP given orally from day 7 until the end of the study. […] Future animal studies will combine with fractionated radiotherapy.
# [2] = test system: adult female C57BL/6J mice; assay: Novel object recognition (NOR) test after brain irradiation; assay type: in vivo, mouse
# Text: The novel object recognition test is a behavioral test in which a mouse is allowed to explore two similar objects during the first (training) session, and then after a certain length of time, one of the two training objects is replaced by a new object during a later (test) session. Because mice have an innate preference for novelty, if the mouse recognizes the familiar object, it will spend most of its time at the novel object. The amount of time taken to explore the new object provides a measure of recognition memory. 24 adult female C57BL/6J mice were treated as follows: (1) 8 mice were irradiated (IR) with 10 Gy total dose, divided into three fractions with a “rest” day in between fractions, covering about a 1 mm square over the center of the head; (2) 8 mice were similarly irradiated, and also treated with 10 mg/kg/day sepiapterin (SP), administered as oral gavage, starting on day 1 of IR to 6 days beyond last radiation fraction (i.e. 11 days total); (3) 8 mice were untreated naïve. 1 month following treatment, mice were tested in the novel object recognition (NOR) task with an hour inter-trial interval (ITI) to assess hippocampal mediated memory (i.e. the test occurred one hour after training). In both training and test phases, time investigating objects was measured for 5 minutes. Two independent observers were used to evaluate. The Discrimination Index=(novel−familiar)/(novel+familiar).
compound,measurement,setting,value
"C[C@H](O)C(=O)C1=Nc2c(nc(N)[nH]c2=O)NC1 [sepiapterin, (S)-2-amino-6-(2-hydroxypropanoyl)-7,8-dihydropteridin-4(3H)-one]",Survival vs control group,"[1]; 1 mg/kg oral continuously (daily from Day 6 to day 60) + IR, vs control",significantly different
same,"Survival vs all other groups (Control, IR alone, and 10 mg/kg for 6d)",[1]; 1 mg/kg oral continuously + IR,significantly different from all other groups
same,Survival vs control group,"[1]; 10 mg/kg oral for 6d from Day 6 + IR (5 fxs of 2 Gy, Day 13-17), vs control (no IR or SP)",significantly different
same,Survival vs IR alone group,"[1]; 10 mg/kg oral for 6d from Day 6 + IR, vs IR alone",did not achieve statistical significance
same,Survival vs TMZ alone,Orthotopic GL261 tumors,improved survival
same,Discrimination Index compared with irradiated-only group,"[2]; 10 Gy IR in three fractions + 10 mg/kg/day oral gavage for 11 days, NOR 1 month after treatment, 1 h ITI",increased
same,"NOR Discrimination Index, Mean","[2]; IR 10 Gy + 10 mg/kg/day sepiapterin, N=8, 1 month after treatment, (novel−familiar)/(novel+familiar)",0.262
same,"Diff of Means of Discrimination Index, IR + drug vs. IR","[2]; Tukey test, P 0.331, P < 0.050: No",0.135
same,"Diff of Means of Discrimination Index, Naïve vs. IR + drug","[2]; Tukey test, P 0.475, P < 0.050: No",0.110
